# Test system: male spontaneous hypertensive rats (SHR)
# Test: Immediate effect on blood pressure in SHR, 1 hour after oral administration, tail artery systolic blood pressure
# Type: in vivo, rat
# Conditions: Example 6, organic acid, SHR aged 15 weeks, mean ± standard error
# Description: The blood pressure of each of male spontaneous hypertensive rats (SHR) was preliminarily continuously measured for 7 days by means of a commercially available non-invasive sphygmomanometer (manufactured by Softlon Co.), thereby fully accustoming the rats to the sphygmomanometry, and an evaluation test was then started. All the rats were bred (in a breeding chamber in a rat zone) under conditions of a temperature of 25±1° C., a relative humidity of 55±10% and a lighting time of 12 hours (from 7 a.m. to 7 p.m.).
# The thus-obtained test results were expressed by a mean and standard error to conduct a Student's t-test. A level of significance was defined as at most 5%.
# Six rats aged 15 weeks at the time the administration test was started were used in each group. The systolic blood pressure of a tail artery of each rat was measured after 1 hour from the beginning of the administration.
# In Control Group, water was orally administered. In Comparative Group 1, a 0.2% aqueous solution of ferulic acid was orally administered. […]
# Six rats aged 15 weeks at the time the administration test was started were used in each group. The systolic blood pressure of a tail artery of each rat was measured after 1 hour from the beginning of oral administration. […]
# In Control Group, a 1% aqueous solution of sugar was orally administered. […] The dose was determined to be 15 mL/kg.
smiles,measurement,setting,value
"COc1cc(/C=C/C(=O)O)ccc1O [Comp. Group 2, ferulic acid]","Systolic blood pressures, Before administration","n=6, baseline",208.0 ± 4.1 mmHg
same,"Systolic blood pressures, After 1 hour from administration","n=6, oral aqueous solution",179.7 ± 4.4 mmHg

# Reference: patent US6991812B2, “Agent for preventing, improving or treating hypertension” (Kao Corporation, priority 2000, dated 2006)
